From ChEMBL document CHEMBL6071193, “Structure-Activity Relationship of Potent, Selective, and Orally Bioavailable Molecular Glue Degraders of CK1α” (ACS Med Chem Lett, 2024)
Converted amounts (≈) assume the structure as drawn. The source made the active and inactive calls. The rule behind the calls is not given here.

test system: not listed separately; experiment: Stability in mouse plasma assessed as half-life at 10 uM measured upto 48 hrs by UPLC-MS/MS analysis; assay type: ADME, cell-free; settings: not given

SMILES	half-life at 10 µM [h]
Cc1ccc2c(Nc3ccc4c(c3)CN(C3CCC(=O)NC3=O)C4=O)noc2c1 (configuration not stated)	31

same assay, conditions: 48 h, 10 µM

SMILES	t1/2 [h]
COc1cccc(C(=O)Nc2ccc3c(c2)CN(C2CCC(=O)NC2=O)C3=O)c1 (configuration not stated)	9.6

target: T1, Cereblon/Casein kinase I alpha (Homo sapiens, UniProt P48729+Q96SW2); experiment: PROTAC activity at CRBN/HiBiT-tagged CK1alpha in HEK293 cells transfected with LgBiT expression vector assessed as induction of CK1alpha degradation by measuring maximal efficacy at 10 uM measured after 24 hrs by luminescence based GloMax Discover assay relative to control; assay type: cell-based; settings: not given
Target sequence in this assay (P48729 2-337 limits assumed): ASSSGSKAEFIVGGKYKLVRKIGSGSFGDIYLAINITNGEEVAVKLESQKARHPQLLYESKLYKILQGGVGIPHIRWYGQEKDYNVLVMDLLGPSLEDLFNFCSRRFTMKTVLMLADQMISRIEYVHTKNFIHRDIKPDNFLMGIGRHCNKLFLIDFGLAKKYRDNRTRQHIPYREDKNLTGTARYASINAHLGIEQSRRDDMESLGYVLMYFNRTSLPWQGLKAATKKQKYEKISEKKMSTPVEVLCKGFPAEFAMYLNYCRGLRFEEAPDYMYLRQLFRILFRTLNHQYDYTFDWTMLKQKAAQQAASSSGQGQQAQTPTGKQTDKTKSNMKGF
Target sequence in this assay (Q96SW2 whole entry partner): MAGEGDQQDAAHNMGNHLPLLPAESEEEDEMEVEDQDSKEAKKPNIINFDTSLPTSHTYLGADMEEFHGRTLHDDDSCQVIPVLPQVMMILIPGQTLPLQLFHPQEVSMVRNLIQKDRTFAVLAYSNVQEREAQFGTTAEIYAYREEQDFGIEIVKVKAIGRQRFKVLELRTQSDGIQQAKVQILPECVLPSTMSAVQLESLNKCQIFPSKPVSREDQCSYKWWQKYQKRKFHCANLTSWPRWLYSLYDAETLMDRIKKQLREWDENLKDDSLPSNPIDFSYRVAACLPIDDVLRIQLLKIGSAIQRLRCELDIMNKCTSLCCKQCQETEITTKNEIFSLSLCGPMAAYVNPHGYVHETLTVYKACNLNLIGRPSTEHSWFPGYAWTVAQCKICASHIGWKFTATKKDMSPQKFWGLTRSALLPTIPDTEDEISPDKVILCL

SMILES	Emax [%]
COc1cccc(C(=O)Nc2ccc3c(c2)CN(C2CCC(=O)NC2=O)C3=O)c1 (configuration not stated)	90
Cc1ccc2c(Nc3ccc4c(c3)CN(C3CCC(=O)NC3=O)C4=O)noc2c1 (configuration not stated)	94

test system: not listed separately; experiment: Metabolic stability in mouse liver microsomes assessed as half-life at 10 uM measured upto 4 hrs in presence of NADPH by UPLC-MS/MS analysis; assay type: ADME, Microsome; settings: liver microsomes

SMILES	half-life at 10 µM [h]
Cc1ccc2c(Nc3ccc4c(c3)CN(C3CCC(=O)NC3=O)C4=O)noc2c1 (configuration not stated)	> 10

same assay, conditions: microsomes, 4 h, 10 µM

SMILES	t1/2 [h]
COc1cccc(C(=O)Nc2ccc3c(c2)CN(C2CCC(=O)NC2=O)C3=O)c1 (configuration not stated)	> 10

test system: Jurkat; experiment: Cytotoxicity against human Jurkat cells expressing HiBiT-tagged IKZF1 at 0.0001 to 100 uM measured over 24 hrs by Cell-Titer Glo assay; assay type: toxicity, cell-based; settings: dose 0.0001-100 µM

SMILES	Activity
COc1cccc(C(=O)Nc2ccc3c(c2)CN(C2CCC(=O)NC2=O)C3=O)c1 (configuration not stated)	Non-Toxic

test system: MOLM-13; experiment: Antiproliferative activity against human MOLM-13 cells incubated for 72 hrs by Cell-Titer Glo assay; assay type: functional, cell-based; settings: MOLM-13, 72 h

SMILES	IC50 [nM]
COc1cccc(C(=O)Nc2ccc3c(c2)CN(C2CCC(=O)NC2=O)C3=O)c1 (configuration not stated)	22
Cc1ccc2c(Nc3ccc4c(c3)CN(C3CCC(=O)NC3=O)C4=O)noc2c1 (configuration not stated)	32

test system: not listed separately; experiment: Stability in human plasma assessed as half-life at 10 uM measured upto 48 hrs by UPLC-MS/MS analysis; assay type: ADME, cell-free; settings: not given

SMILES	t1/2 [h]
COc1cccc(C(=O)Nc2ccc3c(c2)CN(C2CCC(=O)NC2=O)C3=O)c1 (configuration not stated)	10

test system: not listed separately; experiment: Apparent permeability across basolateral to apical side in MDCK-II cells at 10 micromol/L incubated for 1 hrs by UPLC/MS analysis; assay type: ADME, cell-based, Canis lupus familiaris; settings: dog, MDCK, dose 10 µmol/L

SMILES	Papp B→A at 1 h, 10 µM [×10⁻⁶ cm/s]
Cc1ccc2c(Nc3ccc4c(c3)CN(C3CCC(=O)NC3=O)C4=O)noc2c1 (configuration not stated)	2.2

same assay, conditions: dog, mdck-ii, 1 h, 10 µM, dose 10 µmol/L

SMILES	Papp [×10⁻⁶ cm/s]
COc1cccc(C(=O)Nc2ccc3c(c2)CN(C2CCC(=O)NC2=O)C3=O)c1 (configuration not stated)	2.2

target: T1, Cereblon/Casein kinase I alpha; experiment: PROTAC activity at CRBN/HiBiT-tagged CK1alpha in HEK293 cells transfected with LgBiT expression vector assessed as induction of CK1alpha degradation measured after 24 hrs by luminescence based GloMax Discover assay; assay type: cell-based; settings: not given
Target sequence in this assay (P48729 whole entry): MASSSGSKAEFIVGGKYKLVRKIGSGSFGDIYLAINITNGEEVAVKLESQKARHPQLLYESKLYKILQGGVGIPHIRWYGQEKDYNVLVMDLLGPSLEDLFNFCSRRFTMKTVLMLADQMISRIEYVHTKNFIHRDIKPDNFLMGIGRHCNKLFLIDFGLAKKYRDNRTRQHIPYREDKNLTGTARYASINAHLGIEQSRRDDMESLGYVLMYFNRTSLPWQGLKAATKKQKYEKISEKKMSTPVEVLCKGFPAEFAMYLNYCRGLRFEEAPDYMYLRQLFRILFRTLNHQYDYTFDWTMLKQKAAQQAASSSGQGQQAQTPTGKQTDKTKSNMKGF
Target sequence in this assay (Q96SW2 whole entry): as the sequence (Q96SW2 whole entry partner) above

SMILES	DC50 [nM]
COc1cccc(C(=O)Nc2ccc3c(c2)CN(C2CCC(=O)NC2=O)C3=O)c1 (configuration not stated)	6
Cc1ccc2c(Nc3ccc4c(c3)CN(C3CCC(=O)NC3=O)C4=O)noc2c1 (configuration not stated)	1

target: T1, Cereblon/Casein kinase I alpha; experiment: PROTAC activity at CRBN/HiBiT-tagged CK1alpha in HEK293 cells transfected with LgBiT expression vector assessed as induction of CK1alpha degradation by measuring degradation rate at 10 uM measured after 24 hrs by luminescence based GloMax Discover assay; assay type: cell-based; settings: not given
Target sequence in this assay (P48729 2-337 limits assumed): as the sequence (P48729 2-337 limits assumed) above
Target sequence in this assay (Q96SW2 whole entry partner): as the sequence (Q96SW2 whole entry partner) above

SMILES	Activity [h⁻¹]
COc1cccc(C(=O)Nc2ccc3c(c2)CN(C2CCC(=O)NC2=O)C3=O)c1 (configuration not stated)	1.9
Cc1ccc2c(Nc3ccc4c(c3)CN(C3CCC(=O)NC3=O)C4=O)noc2c1 (configuration not stated)	3.5

target: T1, Cereblon/Casein kinase I alpha; experiment: Binding affinity to Halo-tagged CRBN (unknown origin)/HiBiT-tagged CK1alpha in HEK293 cells transfected with LgBiT expression vector assessed as ternary complex formation by measuring fold increase in NanoBRET signal preincubated with MG132 for 30 mins followed by compound addition and measured after 2 hrs by NanoBRET assay relative to control; assay type: cell-based; settings: not given
Target sequence in this assay (P48729 2-337 limits assumed): as the sequence (P48729 2-337 limits assumed) above
Target sequence in this assay (Q96SW2 whole entry partner): as the sequence (Q96SW2 whole entry partner) above

SMILES	fold change (FC)
COc1cccc(C(=O)Nc2ccc3c(c2)CN(C2CCC(=O)NC2=O)C3=O)c1 (configuration not stated)	8.2

target: Protein cereblon/Eukaryotic peptide chain release factor GTP-binding subunit ERF3A (Homo sapiens) (UniProt Q96SW2+P15170); experiment: PROTAC activity at CRBN (unknown origin)/human HiBiT-tagged GSPT1 transfected in HEK293 cells assessed as induction of GSPT1 degradation measured after 24 hrs by Nano-Glo reagent based luminescence analysis; assay type: cell-based; settings: not given
Sequence (P15170 whole entry, looked up): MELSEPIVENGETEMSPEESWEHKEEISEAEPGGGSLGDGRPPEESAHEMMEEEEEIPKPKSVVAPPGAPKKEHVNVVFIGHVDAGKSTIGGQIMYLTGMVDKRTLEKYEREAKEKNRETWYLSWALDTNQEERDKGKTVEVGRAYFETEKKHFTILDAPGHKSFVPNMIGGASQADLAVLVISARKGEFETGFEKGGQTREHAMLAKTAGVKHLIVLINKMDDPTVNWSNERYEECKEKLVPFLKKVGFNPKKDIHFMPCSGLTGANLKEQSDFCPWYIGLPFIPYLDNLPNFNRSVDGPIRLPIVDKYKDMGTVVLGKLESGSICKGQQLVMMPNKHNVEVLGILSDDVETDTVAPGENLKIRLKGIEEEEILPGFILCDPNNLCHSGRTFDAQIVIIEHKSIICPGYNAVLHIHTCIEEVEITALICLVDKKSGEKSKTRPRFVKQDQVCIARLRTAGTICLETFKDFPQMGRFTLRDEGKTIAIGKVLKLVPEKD
Sequence (Q96SW2 whole entry, looked up): as the sequence (Q96SW2 whole entry partner) above

SMILES	Activity
COc1cccc(C(=O)Nc2ccc3c(c2)CN(C2CCC(=O)NC2=O)C3=O)c1 (configuration not stated)	inactive

test system: not listed separately; experiment: Solubility of compound at pH 7.4 incubated for 18 hrs by UV-spectra analysis; assay type: physicochemical; settings: buffer, pH 7.4

SMILES	solubility at 18 h [µM]
Cc1ccc2c(Nc3ccc4c(c3)CN(C3CCC(=O)NC3=O)C4=O)noc2c1 (configuration not stated)	7 (≈ 2.73 µg/mL)

same assay, conditions: buffer, pH 7.4, 18 h

SMILES	solubility [µM]
COc1cccc(C(=O)Nc2ccc3c(c2)CN(C2CCC(=O)NC2=O)C3=O)c1 (configuration not stated)	79 (≈ 31.1 µg/mL)

test system: HEK293; experiment: Cytotoxicity against HEK293 cells expressing HiBiT-tagged CK1alpha at 0.0001 to 100 uM measured over 24 hrs by Cell-Titer Glo assay; assay type: toxicity, cell-based; settings: human, hek293, 24 h, dose 0.0001-100 µM

SMILES	Activity
COc1cccc(C(=O)Nc2ccc3c(c2)CN(C2CCC(=O)NC2=O)C3=O)c1 (configuration not stated)	Non-Toxic

target: T1, Cereblon/Casein kinase I alpha; experiment: Binding affinity to Halo-tagged CRBN (unknown origin)/HiBiT-tagged CK1alpha in HEK293 cells transfected with LgBiT expression vector assessed as ternary complex formation preincubated with MG132 for 30 mins followed by compound addition and measured after 2 hrs by NanoBRET assay; assay type: cell-based; settings: not given
Target sequence in this assay (P48729 whole entry): as the sequence (P48729 whole entry) above
Target sequence in this assay (Q96SW2 whole entry): as the sequence (Q96SW2 whole entry partner) above

SMILES	EC50 [nM]
COc1cccc(C(=O)Nc2ccc3c(c2)CN(C2CCC(=O)NC2=O)C3=O)c1 (configuration not stated)	64

target: Cereblon/Ikaros (Homo sapiens, UniProt Q96SW2+Q13422); experiment: PROTAC activity at CRBN/HiBiT-tagged IKZF1 in human Jurkat cells transfected with LgBiT expression vector assessed as induction of IKZF1 degradation measured after 24 hrs by luminescence based GloMax Discover assay; assay type: cell-based; settings: not given

SMILES	Activity
COc1cccc(C(=O)Nc2ccc3c(c2)CN(C2CCC(=O)NC2=O)C3=O)c1 (configuration not stated)	inactive

test system: not listed separately; experiment: Apparent permeability across apical to basolateral side in MDCK-II cells at 10 micromol/L incubated for 1 hrs by UPLC/MS analysis; assay type: ADME, cell-based, Canis lupus familiaris; settings: dog, MDCK, dose 10 µmol/L

SMILES	Papp A→B at 1 h, 10 µM [×10⁻⁶ cm/s]
Cc1ccc2c(Nc3ccc4c(c3)CN(C3CCC(=O)NC3=O)C4=O)noc2c1 (configuration not stated)	3

same assay, conditions: dog, mdck-ii, 1 h, 10 µM, dose 10 µmol/L

SMILES	Papp [×10⁻⁶ cm/s]
COc1cccc(C(=O)Nc2ccc3c(c2)CN(C2CCC(=O)NC2=O)C3=O)c1 (configuration not stated)	1.7

test system: not listed separately; experiment: Metabolic stability in pooled human liver microsomes assessed as half-life at 10 uM measured upto 4 hrs in presence of NADPH by UPLC-MS/MS analysis; assay type: ADME, Microsome; settings: not given

SMILES	t1/2 [h]
COc1cccc(C(=O)Nc2ccc3c(c2)CN(C2CCC(=O)NC2=O)C3=O)c1 (configuration not stated)	> 10

test system: not listed separately; experiment: Metabolic stability in CD1 mouse hepatocytes assessed as half-life; assay type: ADME, cell-based, Hepatocyte; settings: CD1, mouse

SMILES	half-life [h]
Cc1ccc2c(Nc3ccc4c(c3)CN(C3CCC(=O)NC3=O)C4=O)noc2c1 (configuration not stated)	> 3.6
